Literature values, collected in US5783700A, “Quinolic acid derivatives” (priority 1997, dated 1998).

How the values were obtained:
[1] = system: NMDA receptor glycine binding; conditions: cited from earlier work
[2] = system: recognition site presumed to be located within the ion channel of the receptor complex; conditions: cited from earlier work
[3] = system: [^3 H]-MK 801 binding; conditions: cited from earlier work
[4] = target: glycine binding site on the NMDA receptor; conditions: [^3 H]-labeled ligand; cited from earlier work

SMILES	inhibition of glycine binding [1]	effect on binding of phencyclidine-like compounds [2]	effect at 1 uM on [^3 H]-MK 801 binding ([3]; 1 uM)	IC50 ([3]; [^3 H]-MK 801, depending on brain region, read-out: IC50 (inhibition concentration)) [µM]	Kd [4] [nM]
O=C(O)c1cc(O)c2ccc(Cl)cc2n1 [7-chlorokynurenic acid]	competitive inhibitor of glycine binding	decrease binding	little effect	30 to 40	–
O=C(O)c1cc(O)c2c(Cl)cc(Cl)cc2n1 [[^3 H]-5,7-dichlorokynurenic acid]	–	–	–	–	29
